“And” between values parts separate entries of the source, which are not always exact repeats. Equal entries are not always repeated.
Tests used:
HIV-1ADA [1] = test: IC50 determination of ABC, MABC, PABC in MDM challenged with HIV-1ADA (RT activity); assay type: cell-based; conditions: HIV-1ADA MOI 0.1, RT activity day 10, read-out: IC50 on reverse transcriptase
Experimental: (§1) Antiretroviral activities. Antiretroviral efficacy was determined by measurements of HIV reverse transcriptase (RT) activity. For IC50 determination, MDM were exposed to various concentrations (0.01-1000 nM) of ABC, MABC or PABC for 1 hour followed by challenge with HIV-1ADA at a multiplicity of infection (MOI) of 0.1 infectious particles per cell for 4 hours. Following viral challenge, cells were washed and incubated with the same concentration of drug used before infection for an additional 10 days in culture. Culture fluids were collected on day 10 for the measurement of RT activity. To assess antiretroviral efficacy, MDM were treated with 100 μM ABC, PABC or NPABC as described above for 8 hours. After treatment, cells were washed with PBS and cultured with fresh media, with half-media exchanges every other day. At 0, 4, 12 hours, and 1, 5, 10, 15 or 20 days after treatment, cells were challenged with HIV-1ADA at an MOI of 0.1 infectious particles per cell for 16 hours. After viral infection, the cells were cultured an additional 10 days with half-media exchanges every other day. Culture fluids were collected for measurement of RT activity. Cells were fixed with 4% PFA and expression of HIV-1 p24 antigen was determined by immunocytochemistry.

HIV-1ADA [2] = test: Antiretroviral activity of ABC and its ProTides against HIV-1ADA in MDM (RT activity); assay type: cell-based; conditions: human MDM, RT activity day 10 post infection
Experimental: (§2) Cell model for in vitro studies: Human peripheral blood monocytes were obtained and cultured as described (Gendelman, et al., J. Exp. Med. (1988) 167:1428-1441). Briefly, human peripheral blood monocytes were obtained by leukapheresis from HIV-1/2 and hepatitis B seronegative donors, followed by purification via countercurrent centrifugal elutriation. Elutriated monocytes were cultured as adherent cells in Dulbecco's […] medium (DMEM) supplemented with 10% heat-inactivated pooled human serum, 10 μg/mL ciprofloxacin, 50 μg/mL gentamicin, and 1000 U/mL recombinant macrophage colony stimulating factor. Cells were maintained at 37° C. in a 5% CO2 incubator. Seven days later, differentiated macrophages (MDM) were used for the experiments.
Antiretroviral activity of ABC and its ProTides: The antiviral activities of native ABC and ABC ProTides against HIV-1ADA were determined in MDM as described (Singh, et al., Nanomedicine (2016) 11:1913-1927). MDM were incubated with various concentrations of ABC or ABC ProTides for 60 minutes followed by infection with HIV-1ADA at a multiplicity of infection (MOI) of 0.01 for 4 hours. […] At day 10 post infection, supernatants were collected and analyzed for HIV-1 reverse transcriptase (RT) activity (Kalter, et al., J. Clin. Microbiol. (1992) 30:993-995).

[3] = test system: monocyte-derived macrophages (MDM); test: Intracellular level of CBV-TP in MDM treated with 10 μM ABC or ABC ProTides; assay type: cell-based; conditions: 10 μM drug; for maximum CBV-TP levels: 3-48 hours; for percentage decrease of intracellular CBV-TP from Cmax at 48 hours: (Cmax−Cmin)/(Cmax)*100
Experimental: as §2
Intracellular level of CBV-TP of ABC and its ProTides: Intracellular levels of CBV-TP were measured as described (Balzarini, et al., FEBS Lett. (2004) 573:38-44). MDM were treated with 10 μM ABC and ABC ProTides. At 3, 6, 12, 24 and 48 hours after treatment, MDM were washed with PBS to remove excess free drug. The cells were then collected in 70% methanol. CBV-TP from MDM was extracted and quantitated by LC-MS/MS as described (Gautam, et al., J. Pharm. Biomed. Anal. (2018) 153:248-259). Sep-Pak QMA cartridges (360 mg, 37-55 μm; Waters) were used to separate CBV-TP from their mono- and di-phosphates counterparts. The QMA cartridges were conditioned with 10 ml of 500 mM KCl followed by 10 ml of 5 mM KCl. Samples were loaded onto the cartridges and washed with 15 ml of 75 mM KCl. The triphosphate fraction was eluted with 3 ml of 500 mM KCl and collected for de-phosphorylation. The pH of the TP fraction was lowered to 4.25 by adding 15 μl ammonium acetate buffer (pH 4.10 mM) per ml eluate, and dephosphorylated by adding one unit of type XA sweet potato acid phosphatase per ml eluate and incubating at 37° C. for 30 minutes. The ^15N2^13C-3TC and d4-ABC internal standard was added at this point. Samples were then loaded onto Waters OASIS® HLB cartridges (60 mg, 30 μm; Waters) pre-conditioned with 3 ml MeOH and 3 ml H2O, and washed with 3.5 ml H2O to remove salts. The nucleosides of interest were then eluted with 1.5 ml of MeOH and evaporated under vacuum. Once dry, the residue was reconstituted with a 100 μl of 25% MeOH and stored in the −20° C. freezer until the time of LC-MS/MS analyses. The LC-MS/MS system comprised of a Waters ACQUITY ultra-performance liquid chromatography (UPLC) system (Waters, Milford, Mass.) coupled to a triple quadrupole mass spectrometer with electrospray ionization (ESI) source (Waters Xevo TQ-XS). For the indirect quantification of TPs, chromatographic separation was performed with an ACQUITY UPLC using CSH analytical column (2.1×100 mm, 1.7 μm; Waters) equipped with a guard column (Waters, Milford, Mass.). Mobile phase A consisted of ammonium bicarbonate (pH 7, 7.5 mM) and mobile phase B was methanol. The flow rate was 0.25 ml/minute. […] Mobile phase B was then reset to 12% over 0.25 minutes and the column was equilibrated for 2.75 minutes before the next injection. The total run time was 13 minutes. The mass spectrometer was operated in the positive ion mode using multiple reaction monitoring (MRM). The following transitions were monitored: m/z 230→112 for 3TC, m/z 248→152 for CBV, m/z 287→191 for ABC, m/z 233→115 for the internal standard (IS) ^15N2^13C-3TC, and m/z 291→195 for IS d4-ABC. 3TC, CBV, ABC, ^15N2^13C-3TC, and d4-ABC were detected at a cone voltage of 22, 2, 4, 12, and 2 V, respectively, and a collision energy of 12, 12, 20, 10, and 20 V, respectively.

[4] = test system: monocyte-derived macrophages (MDM); test: Cell viability of ABC and its ProTides in MDM (CCK-8); assay type: cell-based, human
Experimental: Cell viability of ABC and its ProTides: A CCK-8 Kit was purchased from Dojindo (Rockville, Md.) and used to test cell viability after treatment with ABC and its ProTides. Briefly, MDM plated in a 96-well plate were treated with 100 μl of 0-400 μM ABC and its ProTides for 24 hours. Drug containing medium was removed and replaced with fresh medium. Ten μl of CCK-8 solution was added to each well followed by incubation of the plate for 2 hours at 37° C. The absorbance (at 450 nm) of each well was measured using a microplate reader. The cell viability was calculated according to manufacturer's instructions.

Stability assay in serum = assay type: in vitro ADME, human; conditions: 37° C., 24 hours, 15 μg/ml
Experimental: Stability Assay in Serum: The experiment was carried out by adding each ProTide into 100 μl human serum to reach a final concentration of 15 μg/ml in glass vial, and duplicate samples were used for each ProTide. After incubating the samples at 37° C. with shaking for 24 hours, 900 μl of MeOH was added to stop the reaction. Samples were vortexed for 3 minutes, then centrifuged down at 16,000 g for 10 minutes. The supernatants were transfer to new 2 ml tubes and evaporated to dryness under vacuum. The samples were reconstituted using 50 μl of MeOH, vortexed for 3 minutes and centrifuged down at 16,000 g for 10 minutes. The supernatants were analyzed by HPLC for drug concentrations. For control sample (0 minute), MeOH were added first to stop the enzyme before adding the ProTides.

[5] = Characterization of NPABC nanoparticles (DLS, drug loading); assay type: physicochemical; conditions: PABC nanocrystals
Text: The LASER ProTide nanocrystals (NPABC, NP3TC, NPFTC and NPTFV) may be coated with either cell or tissue receptor targeted or non-targeted poloxamer 407 (P407), poloxamer 338 (P338), 1,2-distearoyl-sn-glycero-3-phosphocholine (DSPC), 1,2-distearoyl-sn-glycero-3-phosphoethanolamine-N-carboxy(polyethylene glycol)-2000 (DSPE-PEG) or polyvinyl alcohol (PVA). The nanocrystals may also be stabilized with polysorbate and polyethylene glycol surfactants. Here, a drug to surfactant ratio of 2:1 by weight was used to manufacture NPABC nanoparticles. Briefly, 1-5% (w/v) PABC and 0.5-2.5% (w/v) P407 were mixed in sterile phosphate buffer. The premixed suspensions were nanoformulated by wet milling or high-pressure homogenization at 20,000-psi until desirable size and polydispersity index were achieved. The LASER ProTide nanoformulations were characterized for particle size, polydispersity index (PDI) and zeta potential by dynamic light scattering (DLS). […] For P407-PABC nanoparticles (NPABC), the average size (diameter) was 350 nm, the PDI was 0.28, and the charge was −21.4 mV.
Nanoparticle morphology was determined by scanning electron microscopy (SEM). UPLC MS/MS was used for drug quantitation. The conversion of ABC to PABC facilitated production of stable nanocrystals with a drug loading capacity of more than 70%.

HIV-1ADA [6] = test: Antiretroviral efficacy of ABC, PABC, NPABC in MDM challenged with HIV-1ADA (RT activity, p24); assay type: cell-based; conditions: 100 μM 8 hours
Experimental: as §1, with “Culture fluids were collected for measurement of RT activity.” left out
Significant improvements in MDM antiretroviral efficacy were also observed for PABC and NPABC. […] HIV-1 p24 was not detected in the PABC or NPABC-treated groups at the measured timepoints (FIG. 6). […]

Row | Structure (SMILES) | IC50 (HIV-1ADA [1]) [nM] | EC50 (HIV-1ADA [2]) [nM] | maximum CBV-TP levels [3] [fmol per million cells] | CBV-TP levels at 48 hours [3] [fmol per million cells] | percentage decrease of intracellular CBV-TP from Cmax at 48 hours [3] | cell viability difference versus ABC ([4]; all tested drug concentrations (0-400 μM)) | prodrug hydrolyzed/degraded in human serum (Stability assay in serum) | drug loading capacity [5] | antiretroviral activity compared to ABC (HIV-1ADA [6]) | HIV-1 p24 (HIV-1ADA [6]; challenge after 1-20 days) | mitochondrial activity compared to ABC ([4]; 400 μM)
1 | CCCCCCCCCCCCCC(=O)OCC1C=CC(n2cnc3c(NC4CC4)nc(N)nc32)C1 (stereo not shown) [MABC] | 227 | – | – | – | – | – | – | – | – | – | –
2 | CCCCCCCCCCCCCCCCCCCCCCOC(=O)C(Cc1ccccc1)NP(=O)(OCC1C=CC(n2cnc3c(NC4CC4)nc(N)nc32)C1)Oc1ccccc1 (mixture of isomers) [M3ABC] | – | 7 | 541 | 230 | 57% and 57.3% | No significant differences | Nineteen percent | – | – | – | –
3 | CCCCCCCCCCCCCCCCCCCCCCOC(=O)C(Cc1ccccc1)NP(=O)(OCC1C=CC(n2cnc3c(NC4CC4)nc(N)nc32)C1)Oc1ccccc1 (mixture of isomers) [PABC] | 20.5 | – | – | – | – | – | – | more than 70% | enhanced antiretroviral activity | not detected | –
4 | COC(=O)C(C)NP(=O)(OCC1C=CC(n2cnc3c(NC4CC4)nc(N)nc32)C1)Oc1ccccc1 (mixture of isomers) [M1ABC] | – | 1.8 | 35650 | 789 | 97% and 97.8% | – | – | – | – | – | differences in mitochondrial activity were seen
